Reference: patent publication US20220132758A1, “INTRODUCTION OF ACTIVE SUBSTANCES AND/OR DYE INTO PLANT TISSUE” (priority 2018, published 2022)

System: bark beetle
Test: Imidacloprid-impregnated beech shaped pieces shot into bark beetle-infested spruce trees
Assay type: in vivo
Conditions: 7% imidacloprid solution; 8 pieces per tree; after 3 weeks; bark 10 to 50 cm above the shooting sites
Experimental: 24 shaped pieces according to FIG. 1c, Z-. X-. Y-direction 45×13×3 mm, angle α 90°, angle β 60°, made of beech wood (Fagus sylvatica) were impregnated with a neonicotinoid, a 7% imidacloprid solution (solvent dichloromethane) and then dried. The chips were shot 8 at a time into bark beetle-infested spruce trees using a gas cramping device (Alsafix AGRAFEUSE SANS FIL 12GASCR). After 3 weeks, the bark in the region 10 to 50 cm above the shooting sites was removed and the feeding tunnels exposed.

Compound: O=[N+]([O-])NC1=NCCN1Cc1ccc(Cl)nc1 [imidacloprid]
- living larvae in feeding tunnels: No living larvae were found
